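Where inhibition never reached the appropriate level, the endpoint shown equals the highest concentration tested. Otherwise, values were interpolated linearly from a five-concentration, 48-hour dose response in 96-well plates. At the GI50, growth is halved.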 Active and inactive are the calls of the source. Cut-off read from the data, not from the text of the source: active = GI50 up to about 1.1 µM and inactive = higher.
What was measured:
Assay in all cases: DTP human tumour cell line panel, 48 h
[1] = system: NCI-H460
[2] = system: 786-0
[3] = system: NCI-H23
[4] = system: UO-31
[5] = system: DU-145
[6] = system: ACHN
[7] = system: MDA-MB-231
[8] = system: UACC-62
[9] = system: SK-MEL-28
[10] = system: PC-3
[11] = system: HOP-62
[12] = system: EKVX
[13] = system: RXF 393
[14] = system: MOLT-4
[15] = system: CCRF-CEM
[16] = system: IGROV-1
[17] = system: HCT-116
[18] = system: SNB-19
[19] = system: OVCAR-8
[20] = system: SNB-75

Structure (SMILES) | GI50 [1] | GI50 [2] | GI50 [3] | GI50 [4] | GI50 [5] | GI50 [6] | GI50 [7] | GI50 [8] | GI50 [9] | GI50 [10] | GI50 [11] | GI50 [12] | GI50 [13] | GI50 [14] | GI50 [15] | GI50 [16] | GI50 [17] | GI50 [18] | GI50 [19] | GI50 [20]
O=C1Nc2ccccc2/C1=C\c1c(-c2ccccc2)nc2n1CCS2 | 17.3 µM (inactive) | 19.6 µM (inactive) | 22.9 µM (inactive) | 5.68 µM (inactive) | 13.6 µM (inactive) | 23.6 µM (inactive) | 21.4 µM (inactive) | 13 µM (inactive) | 31.2 µM (inactive) | 19.1 µM (inactive) | 29.2 µM (inactive) | 17.7 µM (inactive) | 16.7 µM (inactive) | 25.8 µM (inactive) | 24.7 µM (inactive) | 23 µM (inactive) | 20.8 µM (inactive) | 28.5 µM (inactive) | 31.3 µM (inactive) | 12.1 µM (inactive)
O=C1CCC2(O)C3Cc4ccc(Oc5nnnn5-c5ccccc5)c5c4C2(CCN3CC2CC2)C1O5 (stereo not given) | 56.5 µM (inactive) | 20 µM (inactive) | > 100 µM (inactive) | 24.2 µM (inactive) | > 100 µM (inactive) | > 100 µM (inactive) | 58.6 µM (inactive) | 28.7 µM (inactive) | 14.9 µM (inactive) | 67 µM (inactive) | > 100 µM (inactive) | > 100 µM (inactive) | 39.1 µM (inactive) | 21 µM (inactive) | 18.6 µM (inactive) | > 100 µM (inactive) | 43.6 µM (inactive) | 95.7 µM (inactive) | 63.4 µM (inactive) | > 100 µM (inactive)
Cc1ccc2cccc3c2c1CC1(C3=O)S(=O)(=O)OCCOS1(=O)=O | > 100 µM (inactive) | > 100 µM (inactive) | > 100 µM (inactive) | > 100 µM (inactive) | > 100 µM (inactive) | > 100 µM (inactive) | > 100 µM (inactive) | > 100 µM (inactive) | > 100 µM (inactive) | > 100 µM (inactive) | > 100 µM (inactive) | > 100 µM (inactive) | > 100 µM (inactive) | > 100 µM (inactive) | > 100 µM (inactive) | > 100 µM (inactive) | > 100 µM (inactive) | > 100 µM (inactive) | > 100 µM (inactive) | > 100 µM (inactive)
C=C(C)[C@@H]1CC=C(CO)CC1 [PERILLYL ALCOHOL] | 454 µM (inactive) | 195 µM (inactive) | 465 µM (inactive) | 410 µM (inactive) | > 10 µM (inactive) | 121 µM (inactive) | > 10 µM (inactive) | 236 µM (inactive) | 201 µM (inactive) | > 10 µM (inactive) | 184 µM (inactive) | 617 µM (inactive) | 93.8 µM (inactive) | 72.3 µM (inactive) | 101 µM (inactive) | 574 µM (inactive) | 96.2 µM (inactive) | 348 µM (inactive) | 145 µM (inactive) | 56 µM (inactive)
NC1CC(=O)c2csc(Cl)c21 (stereo not given) | 22.5 µM (inactive) | 1.55 µM (inactive) | 20.7 µM (inactive) | 5.75 µM (inactive) | 8.11 µM (inactive) | 5.33 µM (inactive) | 9.46 µM (inactive) | 10 µM (inactive) | 17.1 µM (inactive) | 10.1 µM (inactive) | 14.1 µM (inactive) | 17.3 µM (inactive) | 5.78 µM (inactive) | 1.48 µM (inactive) | 0.778 µM (active) | 15.7 µM (inactive) | 3.86 µM (inactive) | 17.5 µM (inactive) | 6.61 µM (inactive) | 17.3 µM (inactive)

Reference: ChEMBL document CHEMBL1201862, “PubChem BioAssay data set” (2004)
